This note sets out measurements from patent US20200085734A1, “PHARMACEUTICAL DOSAGE FORMS CONTAINING TASK-I AND TASK-3 CHANNEL INHIBITORS, AND THE USE OF SAME IN BREATHING DISORDER THERAPY” (priority 2016, published 2020).

For this experiment, the system named is collapsibility of the upper airways. Nature of the experiment: Animal model of obstructive sleep apnoea in the pig (collapse of the upper airways under negative pressure after nasal administration). Type of experiment: in vivo, German Landrace pigs. An excerpt: The effects of the formulations according to the invention of the inhibitors of TASK-1 and/or TASK-3 channels on the activation threshold of the genioglossus muscle by negative pressure and the collapsibility of the upper airways were investigated in a pig model for obstructive sleep apnoea. Using negative pressure, it is possible to induce collapse and thus obstruction of the upper airways in anaesthetized, spontaneously breathing pigs [Wirth et al., Sleep 36, 699-708 (2013)]. German Landrace pigs were used for the model. Since the nasal axis is in an almost vertical position in humans in a horizontal sleeping position, the pigs in the experiments were fixed in a sitting position (70 degrees), wherein the nose pointed upwards. After nasal administration, the formulation therefore flowed downwards over all regions of the upper airways. The pigs were anaesthetized and tracheotomized. One cannula each was inserted into the rostral and the caudal part of the trachea. Using a T connector, the rostral cannula was connected on the one hand to a device generating negative pressure and on the other hand to the caudal cannula. Using a T connector, the caudal cannula was connected to the rostral cannula and to a tube which allowed spontaneous breathing circumventing the upper airways. By appropriate closing and opening of the tubes it was thus possible for the pig to change from normal nasal breathing to breathing via the caudal cannula during the time when the upper airways were isolated and were connected to the device for generating negative pressure. The muscle activity of the Musculus genioglossus was recorded by electromyogram (EMG). At certain points in time, the collapsibility of the upper airways was tested by having the pig breathe via the caudal cannula and applying negative pressures of −50, −100 and −150 mbar (corresponding to −50, −100 and −150 cm water column (cm H2O)) to the upper airways. This caused the upper airways to collapse, which manifested itself in an interruption of the airflow and a pressure drop in the tube system. This test was conducted prior to administration of the test substance and at certain intervals after administration of the test substance. An appropriately effective test substance could prevent this collapse of the airways in the inspiratory phase. After changeover from nasal breathing to breathing via the caudal cannula, it was not possible to measure any EMG activity of the Musculus genioglossus in the anaesthetized pig. As a further test, the negative pressure at which EMG activity restarted was then determined. This threshold value was, if a test substance was effective, shifted to more positive values. The test was likewise conducted prior to the administration of the test substance and at certain intervals after the administration of the test substance. The test substance was administered by the nasal route. The results shown in the tables which follow were conducted with the compounds listed in Table 1 as Example 1, Example 3 and Example 4. Unless stated otherwise, the data were measured at a negative pressure of −100 mbar (corresponding to −100 cm water column (cm H2O)) on the upper airways. The active ingredients listed in Table 1 as Example 1, Example 3 and Example 4 were dissolved in the various formulations listed in Table 2 below and administered in an amount of 0 μg, 3 μg, 10 μg, 30 μg or 100 μg per pig. The active ingredient formulation or the pure vehicle was each administered with a pipette at a volume of 400 μl in each nostril. The duration of action in this pig model is defined as the time [min] in which a collapse of the upper airways was not observed in any animal, as a mean value of the specified number of animals. A duration of action specified as “>” X min signifies that the experiment was terminated at X min and up to this point a collapse of the upper airways was still not observed in any animal

Marks after values point to notes of the source that are not given here.

For the compound `O=C(c1ccccc1F)N1CCN(Cc2c(-c3ccc(Br)cc3)nc3ccccn23)CC1` [Example 4, (4-{[2-(4-bromophenyl)imidazo[1,2-a]pyridin-3-yl]methyl}piperazin-1-yl)(2-fluorophenyl)methanone], the “Duration of action, mean value” is given as 180 min (Formulation 1 (0% PEG400), 100 μg nasal, reduced pressure -50 mbar); 180 min (Formulation 1 (0% PEG400), 100 μg nasal, reduced pressure -100 mbar); above 210 min (Formulation 3 (20% w/v PEG400), 100 μg nasal, reduced pressure -50 mbar); 180 min (Formulation 3 (20% w/v PEG400), 100 μg nasal, reduced pressure -100 mbar).
Consider `COc1cccc(C(=O)N2CCN(Cc3c(-c4ccc(Cl)cc4)nc4ccccn34)CC2)n1` [Example 3, (4-{[2-(4-chlorophenyl)imidazo[1,2-a]pyridin-3-yl]methyl}piperazin-1-yl)(6-methoxypyridin-2-yl)methanone], for which the “Duration of action, mean value” reads like this: (Formulation 1 (phosphate buffer pH 7/polysorbate 80 90/10, 0% PEG400), 3 μg nasal per pig, -100 mbar) 150 min; (Formulation 1 (phosphate buffer pH 7/polysorbate 80 90/10, 0% PEG400), 30 μg nasal per pig, -100 mbar) 180* min; (Formulation 2 (100% w/v PEG400), 3 μg nasal, -100 mbar) above 240 min; (Formulation 3 (phosphate buffer pH 7/polysorbate 80/PEG400 70/10/20), 3 μg nasal per pig, -100 mbar) 180 min; (Formulation 3 (phosphate buffer pH 7/polysorbate 80/PEG400 70/10/20), 30 μg nasal per pig, -100 mbar) 300 min; (Formulation 4 (5% w/v PEG400, 10% polysorbate 80, 85% phosphate buffer pH 7), 3 μg nasal, -100 mbar) 180 min. The “Duration of action, mean value” reads like this: (Formulation 5 (2.5% w/v PEG400, 10% polysorbate 80, 87.5% phosphate buffer pH 7), 3 μg nasal, -100 mbar) 150 min; (Formulation 6 (20% w/v PEG400, 2.5% w/v glycerol 85%, 10% polysorbate 80, 67.5% phosphate buffer pH 7), 3 μg nasal, -100 mbar) 240 min; (Formulation 7 (20% w/v propylene glycol, 10% polysorbate 80, 70% phosphate buffer pH 7), 30 μg nasal, -100 mbar) 180 min; (Formulation 9 (1.25% w/v Na-CMC, 10% polysorbate 80, 88.75% phosphate buffer pH 7, no PEG), 3 μg nasal, -100 mbar) 120 min.
For the compound `O=C(C1CCCC1)N1CCN(Cc2c(-c3ccc(Br)cc3)nc3ccccn23)CC1` [Example 1, (4-{[2-(4-bromophenyl)imidazo[1,2-a]pyridin-3-yl]methyl}piperazin-1-yl)(cyclopentyl)methanone], the “Duration of action, mean value” is, setting by setting: (Formulation 1 (0% PEG400), 10 μg nasal, reduced pressure -50 mbar) 150 min; (Formulation 1 (0% PEG400), 10 μg nasal, reduced pressure -100 mbar) 120 min; (Formulation 3 (20% w/v PEG400), 10 μg nasal, reduced pressure -50 mbar) above 210 min; (Formulation 3 (20% w/v PEG400), 10 μg nasal, reduced pressure -100 mbar) 180 min.
